From US20260069694A1, “IDENTIFICATION OF HIGHLY IMMUNOSUPRESIVE TREG POPULATION IN TUMOR MICROENVIRONMENTS” (THE TRUSTEES OF COLUMBIA UNIVERSITY IN THE CITY OF NEW YORK, priority 2023, published 2026)

Assays:
[1] = test system: naïve CD4+ T cells; assay: iTreg induction from naive CD4+ T cells with TGF-βR1 inhibitor; format: cell-based, mouse
Procedure: (§1) Naïve CD4^+ T cells and nTregs were isolated from the spleen of healthy C57B6129SF1/J mice by magnetic separation using a mouse CD4+ T cell isolation kit and PE-conjugated anti-mouse CD25 with anti-PE magnetic separation micro beads (Miltenyi Biotec™). The isolated T cells were stimulated with anti-CD3/CD28 beads (×25 dilution; Miltenyi Biotec™) in the presence or absence of recombinant mouse TGF-β1 (5 ng/ml; Bio-Techne™ Corporation) for 3 days. iRGD (100 μM) or iRGE (100 μM) peptide was added to the cultures in some experiments. To study the effect of TGF-β1 on the induction of αvβ5 integrin+ iTregs, naïve CD4+ T cells were cultured with anti-CD3/CD28 beads (x 25 dilution) and TGF-β1 (5 ng/ml) in the presence or absence of varying concentrations of a TGF-βR1 inhibitor (LY2157299; Selleck™ Chemicals LLC). To study the effect of TCR stimulation on the induction of αvβ5 integrin+ iTregs, naïve CD4+ T cells treated with varying concentrations of plate-coated anti-mouse CD3 Ab (eBioscience™) in the presence of soluble anti-mouse CD28 Ab (2 μg/ml) (eBioscience™) and TGF-β1 (5 ng/ml). The cells were subjected to flow cytometry as described elsewhere.
Naive CD4+ T cells isolated from healthy mice were expanded in the presence of anti-CD3/CD28 Abs, exogenous TGF-β1, and increasing doses of a TGF-βR1 inhibitor (LY2157299). […] The bar diagram of FIG. 25B summarizes the results from 3 independent experiments. The statistical analysis used was one-way ANOVA; p<0.0001 (0 vs 1), p<0.0001 (1 vs 3), p=0.0154 (3 vs 10).
The bar diagram of FIG. 26B summarizes the results from 3 independent experiments. The statistical analysis used was one-way ANOVA; p=0.3996 (αvβ5, 0 vs 1), p=0.5868 (αvβ5, 0 vs 3), p=0.2265 (NRP-1, 0 vs 1), p=0.5751 (NRP-1, 0 vs 3). The error bars indicate the mean±standard error; *p<0.05; ****p<0.0001; N.S., not significant.

[2] = test system: naïve CD4+ T cells / CD4+CD25+Foxp3+ iTregs; assay: iTreg induction from naive CD4+ T cells in the absence or presence of iRGD or iRGE; format: cell-based, mouse
Procedure: as §1
For the data presented in FIG. 31, FIG. 32A, and FIG. 32B, naïve CD4+ T cells were stimulated with anti-CD3/CD28 Abs and TGF-β1 in the absence or presence of iRGD or iRGE. Flow cytometry was performed to quantify the proportion of CD4+CD25+Foxp3+ iTregs (see FIG. 31) and αvβ5 integrin+ cells among the iTregs (See FIG. 32A). Apoptosis of αvβ5 integrin+ iTregs was quantitated by measuring cleaved caspase 3 using flow cytometry (see FIG. 32B; n=3).
To investigate whether iRGD Reduces CD4+CD25+Foxp3+ iTregs in an RGD-Dependent Manner in Vitro, naïve CD4+ T cells were stimulated with anti-CD3/CD28 Abs and TGF-β1 in the absence or presence of the iRGD or iRGE peptide. The resulting cells were subjected to flow cytometry to analyze the expression of CD25 and Foxp3 in the CD4+ T cells (FIG. 33A) and the expression of the αvβ5 integrin and NRP-1 on CD4+CD25+Foxp3+ iTregs (FIG. 33B). The bar diagram in (FIG. 33C) summarizes the proportion of NRP-1+ cells among the iTregs. The statistical analysis used was the one-way ANOVA; p=0.8221. n=3 per group.
The proportion of apoptotic αvβ5 integrin+ iTregs (FIG. 34) and CD4+Foxp3neg T cells (FIG. 35) was quantitated by measuring cleaved caspase 3 using flow cytometry. The statistical analysis used was Welch's t test; p=0.0705 (n=3). The dot plots and histograms of FIG. 33C and FIG. 35 show representative data from the 3 independent experiments. The error bars indicate the mean±standard error; N.S., not significant.

[3] = peptide 100 μM, anti-CD3/CD28 Abs and TGF-β1

Molecule: Cc1cccc(-c2nn3c(c2-c2ccnc4ccc(C(N)=O)cc24)CCC3)n1 [LY2157299]
- proportion of the NRP-1-positive iTregs ([1]; among iTregs): did not affect
- proportion of the αvβ5-positive iTregs ([1]; among iTregs): did not affect
- development of iTregs (CD4+Foxp3+ T cells) from naïve CD4+ T cells ([1]; anti-CD3/CD28 Abs, exogenous TGF-β1, increasing doses of inhibitor): suppressed the development of iTregs from naïve CD4+ T cells in a dose-dependent manner

Molecule: CRGEKGPDC [iRGE, an iRGD variant that lacks the RGD motif, reference compound]
- apoptosis of CD4+Foxp3neg T cells (cleaved caspase 3) ([2]; flow cytometry): Neither iRGD nor iRGE increased the apoptosis
- proportion of CD4+CD25+Foxp3+ iTregs [2, 3]: ineffective
- αvβ5 integrin-positive population among the iTregs [2, 3]: ineffective
